# Laboratory results reported in PMC9978853 (Acta Pharmaceutica Sinica. B, 2022).
# Biological target: NAMPT (Mus musculus, UniProt Q99KQ4)
# Assay: co-crystal structure
# Assay type: binding
# NAMPT, sequence (Q99KQ4 whole entry): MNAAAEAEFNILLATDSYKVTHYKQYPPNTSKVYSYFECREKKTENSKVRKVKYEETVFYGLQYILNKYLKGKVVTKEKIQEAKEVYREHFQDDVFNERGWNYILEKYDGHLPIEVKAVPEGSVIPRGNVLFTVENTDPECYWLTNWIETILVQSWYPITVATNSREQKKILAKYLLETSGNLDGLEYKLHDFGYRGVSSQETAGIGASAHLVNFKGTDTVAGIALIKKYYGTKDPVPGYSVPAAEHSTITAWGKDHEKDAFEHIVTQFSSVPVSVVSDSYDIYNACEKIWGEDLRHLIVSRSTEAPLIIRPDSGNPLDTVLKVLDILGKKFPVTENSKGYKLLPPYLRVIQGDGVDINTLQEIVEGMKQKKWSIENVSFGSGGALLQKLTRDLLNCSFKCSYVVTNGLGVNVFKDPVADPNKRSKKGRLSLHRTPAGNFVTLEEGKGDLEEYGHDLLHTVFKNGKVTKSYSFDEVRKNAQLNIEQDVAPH
smiles,measurement,value
"O=C(NCc1ccc([C@@H]2O[C@H](COP(=O)(O)O)[C@@H](O)[C@H]2O)cc1)Nc1ccc(S(=O)(=O)c2ccccc2)cc1 [9a, ((2R,3S,4R,5S)-3,4-Dihydroxy-5-(4-((3-(4-(phenylsulfonyl)phenyl)ureido)methyl)phenyl)tetrahydrofuran-2-yl)methyldihydrogenphosphate]",co-crystal structure,Compound 9a bound to dimeric NAMPT (PDB: 7Q8T).
